From patent US20120064072A1, “Combination Cancer Therapy Comprising Administration of an EGFR Inhibitor and an IGF-1R Inhibitor” (priority 2009, published 2012)

What was measured:
[1] = test system: H292 (NSCLC) human tumor xenograft; assay: Treatment beyond progression (TBP), H292 xenograft model; assay type: in vivo, mice
Description: Anti-tumor efficacy was evaluated using mouse xenograft tumor models derived from GEO and H292 cells. Female athymic nude nu/nu CD-1 mice (6-8 wks, 22-29 g) were obtained from Charles River Laboratories (Wilmington, Mass.). Animals were allowed to acclimate for a minimum of one week prior to initiation of a study. Throughout the studies, animals were allowed sterile rodent chow and water ad libitum, and immunocompromised animals were maintained under specific pathogen free conditions. […] Tumor cells were harvested from cell culture flasks during exponential cell growth, washed twice with sterile PBS, counted and resuspended in PBS to a suitable concentration before s.c. implantation on the right flank of female nu/nu CD-1 mice. Tumors were established to 200+/−50 mm^3 in size before randomization into treatment groups of 8 mice each. Body weights were determined twice weekly along with tumor volume {V=[length×(width)^2]/2} measurements using Vernier calipers during the study. Tumor growth inhibition (% TGI) was determined by the following formula: % TGI={1−[(Tt/T0)/(Ct/C0)]/1-[C0/Ct]}×100. Tt is tumor volume of treated at time t; T0 is tumor volume of treated at time 0; Ct is tumor volume of control at time t; and C0 is tumor volume of control at time 0. […] Furthermore, we evaluated the effect of drug treatment on tumor growth delay (GD or T-C value), defined as the difference in time (days) required for the treated tumors (T) to reach 400% of the initial tumor volume compared with those of the control group (C). […] At the time of tumor progression on single agent erlotinib treatment mice were randomized into additional study groups of 8 mice each. Individual tumor volumes were calculated, as stated above, for all mice throughout the study and the time in days until each mouse doubled its tumor volume from the time of re-randomization was determined by linear regression analysis of the entire data set. Statistical evaluation of the data was determined by Kaplan-Meier Survival analysis.
In two separate experiments (FIGS. 9-11 and FIGS. 13-15), NCI-H292 cells were harvested from cell culture flasks during exponential cell growth, washed twice with sterile PBS, counted and resuspended in PBS to a suitable concentration before s.c. implantation on the right flank of female nu/nu CD-1 mice. Tumors were established to 200+/−50 mm^3 in size before randomization into vehicle control or erlotinib treatment groups.

[2] = test system: H292 (NSCLC) human tumor xenograft; assay: Frontline combination treatment, H292 xenograft model; assay type: in vivo, mice; conditions: by 100 days
Description: Anti-tumor efficacy was evaluated using mouse xenograft tumor models derived from GEO and H292 cells. Female athymic nude nu/nu CD-1 mice (6-8 wks, 22-29 g) were obtained from Charles River Laboratories (Wilmington, Mass.). Animals were allowed to acclimate for a minimum of one week prior to initiation of a study. Throughout the studies, animals were allowed sterile rodent chow and water ad libitum, and immunocompromised animals were maintained under specific pathogen free conditions. […] Tumor cells were harvested from cell culture flasks during exponential cell growth, washed twice with sterile PBS, counted and resuspended in PBS to a suitable concentration before s.c. implantation on the right flank of female nu/nu CD-1 mice. […] Body weights were determined twice weekly along with tumor volume {V=[length×(width)^2]/2} measurements using Vernier calipers during the study. Tumor growth inhibition (% TGI) was determined by the following formula: % TGI={1−[(Tt/T0)/(Ct/C0)]/1-[C0/Ct]}×100. […] Furthermore, we evaluated the effect of drug treatment on tumor growth delay (GD or T-C value), defined as the difference in time (days) required for the treated tumors (T) to reach 400% of the initial tumor volume compared with those of the control group (C). […] Statistical evaluation of the data was determined by Kaplan-Meier Survival analysis.

[3] = test system: pIR; assay: RTK array analysis, H292 model; assay type: in vivo, human; conditions: H292 tumors, erlotinib 100 mg/kg per day eighteen days, progressor tumors vs untreated or non-progressor; FIG. 5
Description: (§1) In untreated H292 tumors and tumors treated with erlotinib (100 mg/kg per day) for eighteen days, the levels of pIGF-1R and pIR were measured in terms of pixel density normalized to phosphotyrosine loading control, as shown in FIG. 5. Tumors that initially responded and then progressed (progressor) show upregulation of both pIGF-1R and pIR as compared to untreated tumors or tumors that continue to respond to erlotinib treatment (non-progressor).

[4] = test system: pIGF-1R; assay: RTK array analysis, H292 model; assay type: in vivo, human; conditions: H292 tumors, erlotinib 100 mg/kg per day eighteen days, progressor tumors vs untreated or non-progressor; FIG. 5
Description: as §1

[5] = test system: Akt; assay: H292 model Western blot analysis; assay type: in vivo, human; conditions: H292, erlotinib 100 mg/kg per day eighteen days, FIG. 6
Description: (§2) In untreated H292 tumors and tumors treated with erlotinib (100 mg/kg per day) for eighteen days, the levels of total and phosphorylated Akt and Erk were measured and quantitated in terms of the ratio of phosphor to total protein in each sample and then plotted as compared to levels observed in vehicle control treated tumors (assumed to be 100%).

[6] = test system: Erk; assay: H292 model Western blot analysis; assay type: in vivo, human; conditions: H292, erlotinib 100 mg/kg per day eighteen days, FIG. 6
Description: as §2

[7] = test system: pIR; assay: RTK array analysis, GEO model; assay type: in vivo, human; conditions: erlotinib 100 mg/kg per day for eighteen days, all treated tumors, FIG. 1
Description: (§3) In untreated GEO tumors and tumors treated with erlotinib (100 mg/kg per day) for eighteen days, the levels of pEGFR, pIGF-1R, and pIR were measured in terms of median pixel density, as shown in FIG. 1.

[8] = test system: pIGF-1R; assay: RTK array analysis, GEO model; assay type: in vivo, human; conditions: erlotinib 100 mg/kg per day for eighteen days, all treated tumors, FIG. 1
Description: as §3

[9] = test system: GEO (CRC) human tumor xenograft; assay: Treatment beyond progression (TBP), GEO xenograft model; assay type: in vivo, mice; conditions: after progression on 18 days erlotinib, erlotinib maintenance 100 mg/kg per day, or with OSI-906 15 mg/kg per day added, FIG. 4
Description: The H292 (NSCLC) and GEO (CRC) human tumor xenograft models were used to evaluate the efficacy of EGFR inhibitor (erlotinib) maintenance therapy with and without the addition of IGF-1R inhibitor (OSI-906) therapy following response and subsequent progression on erlotinib monotherapy.
Anti-tumor efficacy was evaluated using mouse xenograft tumor models derived from GEO and H292 cells. Female athymic nude nu/nu CD-1 mice (6-8 wks, 22-29 g) were obtained from Charles River Laboratories (Wilmington, Mass.). Animals were allowed to acclimate for a minimum of one week prior to initiation of a study. […] Tumor cells were harvested from cell culture flasks during exponential cell growth, washed twice with sterile PBS, counted and resuspended in PBS to a suitable concentration before s.c. implantation on the right flank of female nu/nu CD-1 mice. […] Body weights were determined twice weekly along with tumor volume {V=[length×(width)^2]/2} measurements using Vernier calipers during the study. Tumor growth inhibition (% TGI) was determined by the following formula: % TGI={1−[(Tt/T0)/(Ct/C0)]/1-[C0/Ct]}×100. […] Furthermore, we evaluated the effect of drug treatment on tumor growth delay (GD or T-C value), defined as the difference in time (days) required for the treated tumors (T) to reach 400% of the initial tumor volume compared with those of the control group (C). […]

[10] = test system: Akt; assay: GEO model Western blot analysis; assay type: in vivo, human; conditions: erlotinib 100 mg/kg per day eighteen days, FIG. 2
Description: as §2, with “GEO” for “H292”

[11] = test system: Erk; assay: GEO model Western blot analysis; assay type: in vivo, human; conditions: erlotinib 100 mg/kg per day eighteen days, FIG. 2
Description: as §2, with “GEO” for “H292”

[12] = OSI-906 50 mg/kg per day after taking off erlotinib
[13] = tumors that do not progress on treatment
[14] = tumors that respond and then progress on treatment

Compound	time to tumor doubling, switching to OSI-906 single agent versus maintaining erlotinib single agent [1, 12]	time to two tumor doublings, switching to OSI-906 single agent versus maintaining erlotinib single agent [1, 12]	mice that doubled their tumor volumes twice [2]	level of pIR (pixel density normalized to phosphotyrosine loading control) [3]	level of pIGF-1R (pixel density normalized to phosphotyrosine loading control) [4]	median time to one doubling ([1]; first trial, FIG. 10, Kaplan-Meier, after 28 days erlotinib 100 mg/kg per day, combination = erlotinib + OSI-906 15 or 10 mg/kg) [days]	median time to two doublings ([1]; first trial, FIG. 11, Kaplan-Meier, combination = erlotinib + OSI-906 15 or 10 mg/kg) [days]	median time to one doubling ([1]; second trial, FIG. 14, Kaplan-Meier) [days]	median time to two doublings ([1]; second trial, FIG. 15, Kaplan-Meier) [days]	phospho to total Akt versus vehicle control [5, 13]	phospho to total Akt versus vehicle control [5, 14]	phospho to total Erk versus vehicle control [6, 13]	phospho to total Erk versus vehicle control [6, 14]	level of pIR (median pixel density) compared to untreated tumors [7]	level of pIGF-1R (median pixel density) compared to untreated tumors [8]	median time to tumor doubling following the re-sorting [9]	phospho to total Akt versus vehicle control [10, 13]	phospho to total Akt versus vehicle control [10, 14]	phospho to total Erk versus vehicle control [11, 13]	phospho to total Erk versus vehicle control [11, 14]
C[C@]1(O)C[C@@H](c2nc(-c3ccc4ccc(-c5ccccc5)nc4c3)c3c(N)nccn32)C1 [OSI-906, cis-3-[8-amino-1-(2-phenyl-quinolin-7-yl)-imidazo[1,5-a]pyrazin-3-yl]-1-methyl-cyclobutanol]	no statistical difference	no statistical difference																		
C#Cc1cccc(Nc2ncnc3cc(OCCOC)c(OCCOC)cc23)c1 [erlotinib, [6,7-bis(2-methoxyethoxy)-4-quinazolin-4-yl]-(3-ethynylphenyl)amine]			7 of 8	upregulation	upregulation	20.9	41.5	20.9	45.8	continued inhibition	no longer inhibiting	continued inhibition	no longer inhibiting	upregulation	upregulation	about 28 days	continued inhibition	no longer inhibiting	continued inhibition	no longer inhibiting
